Tested on: St6OMT2
Test: UPLC quantification of (S)-coclaurine formed; Hill function fit
Format: biochemical, Stephania tetrandra
Details: co-substrate S-adenosyl-L-methionine (1 mM in standard assay); 37°C; PBS; substrate 10–200 μM

Km: 28.2 µM
SMILES: Oc1ccc(C[C@@H]2NCCc3cc(O)c(O)cc32)cc1 [(S)-norcoclaurine]

— PMC9009073, “Transcriptome Analysis of Stephania tetrandra and Characterization of Norcoclaurine-6-O-Methyltransferase Involved in Benzylisoquinoline Alkaloid Biosynthesis” (Frontiers in Plant Science, 2022)
